Measured values published in paper PMC12365674, “Diverse metabolites with anti-psoriasis potential from different fermentations of the fungicolous fungus Xylarialongipes HFG1018” (IMA Fungus, 2025).
“Also recorded” adds a separate entry of the source. Read-outs that look alike come from different tables or passages of the source.

How the values were obtained:
HaCaT cells [1] = assay: Antiproliferative activity against HaCaT cells (CCK-8); type: cell-based; settings: read-out: IC50 against the proliferation of HaCaT cells
Method: (§1) As previously described, the immunosuppressive activity, lymphocyte viability, and antiproliferative activity against HaCaT cells were evaluated using the CCK-8 method ([Zhao et al. 2023], [2024]).
(§2) In the immunosuppressive and lymphocyte viability, the primary tested concentration of all compounds was 20.0 μM, and dexamethasone (Dex) (c = 2.0 μM) was used as a positive control. In the antiproliferative activity against HaCaT cells, the primary tested concentration of all compounds was 40 μM, and the positive control was methotrexate (MTX) (c = 40.0 μM). When the inhibition rates are greater than 50%, the IC50 values of active compounds will be further tested and calculated. All experiments were performed in triplicate.

[2] = test system: ConA-induced T lymphocytes; assay: Anti-proliferative activity against ConA-induced T lymphocytes (CCK-8); type: cell-based; settings: Mus musculus, T-lymphocyte; for inhibition at 20 µM: c = 20 μM, ConA-induced T lymphocytes, read-out: Inhibition rate (%) T; for IC50: induced proliferation of T lymphocytes (ConA), CCK-8, read-out: T cells IC50
Method: as §1, §2

[3] = test system: LPS-induced B lymphocytes; assay: Anti-proliferative activity against LPS-induced B lymphocytes (CCK-8); type: cell-based, mouse; settings: Mus musculus, Lymphocyte; for inhibition at 20 µM: c = 20 μM, LPS-induced B lymphocytes, read-out: Inhibition rate (%) B; for IC50: induced proliferation of B lymphocytes (LPS), CCK-8, read-out: B cells IC50
Method: as §1, §2

lymphocytes [4] = assay: Lymphocyte viability (CCK-8); type: cell-based, mouse; settings: c = 20 μM
Method: as §1, §2

[5] = test system: ConA-induced T lymphocytes; assay: Anti-proliferative activity against ConA-induced T lymphocytes (CCK-8); type: cell-based; settings: Mus musculus, T-lymphocyte, c = 40 μM, read-out: Inhibition rate (%) T
[6] = test system: LPS-induced B lymphocytes; assay: Anti-proliferative activity against LPS-induced B lymphocytes (CCK-8); type: cell-based; settings: Mus musculus, Lymphocyte, c = 40 μM, read-out: Inhibition rate (%) B
lymphocytes [7] = assay: Lymphocyte viability (CCK-8); type: cell-based, mouse; settings: c = 40 μM
[8] = test system: induced T cells (Con A 5 μg/mL); assay: EdU proliferation assay, induced T cells; type: cell-based, mouse; settings: c = 20 μM; relative to the model group
Method: (§3) EdU fluorescence labeling for cell proliferation of induced T/B lymphocytes (2 × 10^5 cells/well) and HaCaT cells (1 × 10^4 cells/well) of active compounds 10, 19, 23, 32, 38, and 41 (final concentration 10 or 20 μM) was performed as previously reported ([Biram and Shulman 2020]; [Zhao et al. 2024]). EdU (HF488) (the Click-iT™ EdU Flow Cytometry Assay Kit, APExBIO, USA) was added 24 h (final concentration 50 μM, T and B cells) and 4 h (final concentration 10 μM, HaCaT cells) before harvesting the cells. All procedures were performed according to the manufacturer’s instructions for the click reaction. EdU-positive cells and proliferating phase cells were analyzed with a fluorescence microscope.

[9] = test system: induced B cells (LPS 15 μg/mL); assay: EdU proliferation assay, induced B cells; type: cell-based, mouse; settings: c = 20 μM; relative to the model group
Method: as §3

IFN-γ = assay: Cytokine analysis by ELISA of induced T cells: IFN-γ; type: cell-based, mouse; settings: ConA-induced T cells, 48 h; all sample groups; P < 0.0001 vs. model
Method: (§4) The mononuclear cell suspensions (2 × 10^5 cells/well) were cultured with ConA (5 μg/mL) in 96-well plates, and indicated concentrations of compounds 2, 15, and 32 were added simultaneously. After a 48-hour culture period, cytokines in the supernatants were quantified using mouse IFN-γ, IL-2, and IL-17A ELISA kits (Mabtech, Sweden), following the manufacturer’s protocol ([Jing et al. 2021]; [Zhao et al. 2024]).

IL-17A = assay: Cytokine analysis by ELISA of induced T cells: IL-17A; type: cell-based, mouse; settings: 40 μM; ConA-induced T cells, 48 h; P < 0.05 vs. model
Method: as §4

[10] = Lymphocyte viability (CCK-8); type: cell-based, mouse; settings: mouse, lymphocytes; lymphocyte viability; CCK-8
Method: as §1, §2

HaCaT cells [11] = assay: EdU proliferation assay, HaCaT cells; type: cell-based; settings: c = 20 μM; compared to the control group
Method: as §3

[12] = test system: NF-κB p65 phosphorylation; assay: Immunofluorescence of p-p65/p65 in HaCaT cells; type: cell-based; settings: 31.0 μM, 36 h, P < 0.0001 vs. Con
Method: The immunofluorescence protocol was performed using the reported method ([Zhao et al. 2024]). HaCaT cells (2.0 × 10^5 cells/well) were plated onto 6-well plates with glass coverslips and adhered overnight (12 h) before compound addition. After treatment with active compounds 10 (final concentration 31 μM) and 32 (final concentration 27 μM) for 36 h, the supernatant was removed, and the cells were washed twice with PBS, fixed with 4% paraformaldehyde for 15 min, and then washed with PBS three times. After blocking, incubated with NF-κB p65 (p65)/phosphorylated NF-κB p65 (p-p65) antibodies and secondary antibodies (Servicebio, China). Then, cells were counterstained with 4,6-[…]-2-phenylindole (DAPI) for 5 min. After the PBS washing, fluorescent seal liquid was added, and the plate was monitored under an imaging system (Pannoramic MIDI, 3Dhistech, Hungary). The nucleus is blue, and positive cells are green (p-p65) or red (p65). The immunofluorescence areas for each indicator were analyzed in ImageJ.

| Compound | inhibition at 20 µM [2] [%] | inhibition at 20 µM [3] [%] | Cell validity (%) (lymphocytes [4]) | inhibition at 40 µM [5] [%] | inhibition at 40 µM [6] [%] | Cell validity (%) (lymphocytes [7]) | IC50 (HaCaT cells [1]; Homo sapiens, HaCaT) [µM] | also measured |
| --- | --- | --- | --- | --- | --- | --- | --- | --- |
| 3-methoxy-2-phenethyl-1H-pyrrole-1-carbaldehyde [Compound 35] |  |  |  |  |  |  |  | IC50 (HaCaT cells [1]): 31.5 ± 2.4 µM |
| CC12CCOC(C1)C1=C(CCC3C(C)(C(=O)O)CCCC13C)C2 (stereo not drawn) [Compound 1, 11α,16-Epoxy-isopimar-8(9)-en-19β-oic acid] | 11.4 ± 6.4 | 18.9 ± 7.5 | 86.3 ± 2.1 | 16.5 ± 1.5 | 20.4 ± 6.3 | 90.7 ± 4.0 |  |  |
| C[C@]1(CCO[C@H]2O[C@H](CO)[C@@H](O)[C@H](O)[C@@H]2O)CCC2=C(CC[C@H]3[C@@](C)(C(=O)O)CCC[C@]23C)C1 [Compound 2, 16-α-D-Mannopyranosyloxyisopimar-8(9)-en-19-oic acid] | 23.8 ± 0.9 | 24.9 ± 8.6 | 100.0 ± 2.4 | 32.8 ± 6.8 | 30.6 ± 6.2 | 89.8 ± 7.9 |  | proliferation of induced T cells measured by EdU [8]: significantly suppressed the proliferation; proliferation of induced B cells measured by EdU [9]: significantly suppressed the proliferation; IFN-γ secretion (IFN-γ): significant reduction; also recorded: significantly reduced; IL-17A levels (IL-17A): markedly lowered |
| C[C@]1(CCO[C@H]2O[C@H](CO)[C@@H](O)[C@H](O)[C@H]2O)CCC2=C(CC[C@H]3[C@@](C)(C(=O)O)CCC[C@]23C)C1 [Compound 3, 16-α-D-Glucopyranosyloxyisopimar-8(9)-en-19-oic acid] | 15.7 ± 7.9 | 11 ± 4.9 | 87.7 ± 7.4 | 26.5 ± 3.3 | 22.6 ± 9.6 | 89.9 ± 4.4 |  |  |
| CCC1CCc2occc(=O)c2C1O (stereo not shown) [Compound 9, 6-ethyl-5-hydroxy-5,6,7,8-tetrahydro-4H-chromen-4-one] |  |  |  |  |  |  | 35 ± 3.1 |  |
| CCC1=Cc2c(occ(COC)c2=O)CC1 [Compound 10, 6-ethyl-3-(methoxymethyl)-7,8-dihydro-4H-chromen-4-one] |  |  |  |  |  |  | 30.9 ± 2.7 | IC50 [2]: > 20 µM; IC50 [3]: 8 ± 0.7 µM; CC50 [10]: > 20 µM; proliferation rates of HaCaT cells measured by EdU (HaCaT cells [11]): significantly reduced; NF-κB activation (ratio p-p65/p65) [12]: significantly attenuated NF-κB activation |
| CCc1ccc2occ(COC)c(=O)c2c1 [Compound 11, 6-ethyl-3-(methoxymethyl)-4H-chromen-4-one] |  |  |  |  |  |  |  | IC50 [2]: > 20 µM; IC50 [3]: 20 ± 1.5 µM; CC50 [10]: > 20 µM |
| CC[C@@]1(O)CCc2occ(COC)c(=O)c2[C@@H]1O [Compound 13, (5S,6R)-6-ethyl-5,6-dihydroxy-3-(methoxymethyl)-5,6,7,8-tetrahydro-4H-chromen-4-one] |  |  |  |  |  |  | 31.1 ± 2.6 |  |
| C[C@]1(CCO[C@H]2O[C@H](CO)[C@@H](O)[C@H](O)[C@@H]2O)CC[C@H]2C(=CC[C@@H]3[C@]2(C)CCC[C@]3(C)C(=O)O)C1 [Compound 16, 16-α-D-mannopyranosyloxyisopimar-7-en-19-oic acid] | 13.1 ± 2.7 | 19.3 ± 4.6 | 101.8 ± 6.9 | 20.7 ± 4.3 | 20.5 ± 10.6 | 96.2 ± 1.1 |  |  |
| C[C@]1(CCO[C@H]2O[C@H](CO)[C@@H](O)[C@H](O)[C@H]2O)CC[C@H]2C(=CC[C@@H]3[C@]2(C)CCC[C@]3(C)C(=O)O)C1 [Compound 17, 16-α-D-glucopyranosyloxyisopimar-7-en-19-oic acid] | 10.1 ± 4.4 | 11.5 ± 3.1 | 94.0 ± 5.6 | 16.3 ± 4.3 | 20.7 ± 6.9 | 100.0 ± 8.5 |  |  |
| COc1ccc2oc(C)cc(=O)c2c1O [Compound 19, 5-hydroxy-6-methoxy-2-methyl-4H-1-benzopyran-4-one] |  |  |  |  |  |  | 29.7 ± 3.3 | proliferation rates of HaCaT cells measured by EdU (HaCaT cells [11]): significantly reduced |
| COc1cccc2c1C(=O)O[C@@H](C)C2 [Compound 22, (S)-8-methoxy-3-methylisochroman-1-one] |  |  |  |  |  |  | 32.3 ± 1.5 |  |
